# Test results published in patent US20230257347A1 (priority 2020, published 2023).
# Read-outs that look alike come from different tables or passages of the source.
# Experiments:
# MAOA = target: T1, MAOA (Homo sapiens, UniProt P21397); conditions: cited from earlier work; for IC50: read-out: MAOA IC50, Table 10, Source (1) Wagmann et al. 2017
# T1 sequence (P21397 1-527): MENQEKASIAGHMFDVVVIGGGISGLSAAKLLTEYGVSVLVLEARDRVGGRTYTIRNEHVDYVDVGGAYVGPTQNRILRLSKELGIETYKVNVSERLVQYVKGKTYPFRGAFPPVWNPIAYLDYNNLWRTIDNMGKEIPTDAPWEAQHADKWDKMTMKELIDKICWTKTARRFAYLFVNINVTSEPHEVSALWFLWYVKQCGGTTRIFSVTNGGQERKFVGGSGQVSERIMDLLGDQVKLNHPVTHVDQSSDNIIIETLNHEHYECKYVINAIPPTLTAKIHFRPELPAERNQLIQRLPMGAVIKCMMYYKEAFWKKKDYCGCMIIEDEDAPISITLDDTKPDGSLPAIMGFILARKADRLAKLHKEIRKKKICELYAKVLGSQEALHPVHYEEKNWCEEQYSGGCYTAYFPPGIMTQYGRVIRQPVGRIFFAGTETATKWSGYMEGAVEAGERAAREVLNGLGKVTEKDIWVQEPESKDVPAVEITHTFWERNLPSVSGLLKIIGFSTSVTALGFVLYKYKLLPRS
# [1] = target: T2, Monoamine oxidase type A (MAOA) (Homo sapiens, UniProt P21397); assay: Enzymatic assay, MAOA (kynuramine substrate); type: biochemical; conditions: for Hill: Hill of MAOA inhibition curve, Original data; for MAOA inhibition (MAOI or not, in words): original data
# T2 construct: purchased Sigma
# T2 sequence (P21397 1-527): T1 sequence (P21397 1-527)
# neuritogenesis = conditions: cited from earlier work
# [2] = target: T3, human 5-HT transporter (hSERT) (Homo sapiens, UniProt P31645); assay: hSERT antagonist radioligand assay ([3H]imipramine), CHO cells; type: binding
# T3 construct: expressed in transfected cells; host or cells: CHO
# From the text: Interactions with these transporters were therefore separately measured using two additional types of assays: an antagonist radioligand assay of inhibition of the human 5-HT transporter (hSERT) expressed in CHO cells (Tatsumi, M. et al. (1999), Eur. J. Pharmacol., 368: 277-283) and an assay measuring release of [^3H] […] While the former is sensitive to classic reuptake inhibition, the latter can detect the effects of substrates, which also induce release. Specific assay steps and reference compounds are given below for each assay type.
# Three tryptamine derivatives were evaluated for inhibiting the human 5-HT transporter (hSERT) as expressed in CHO cells using an antagonist radioligand assay (Tatsumi, M. et al. 1999, Eur. J. Pharmacol., 368: 277-283). […] Test compounds were assayed in two trials at 3.0E-10, 3.0E-9, 3.0E-8, 3.0E-7, 3.0E-6, and 3.0E-5 M.
# human DAT = target: T4, human DAT (Homo sapiens, UniProt Q01959); assay: hDAT release of [3H]dopamine, CHO cells; type: cell-based; conditions: for DAT/SERT ratio: (DAT EC50)^−1/(SERT EC50)^−1, larger numbers indicate higher DAT selectivity
# T4 construct: expressed in transfected cells
# human SERT = target: T5, human SERT (Homo sapiens, UniProt P31645); assay: hSERT release of [3H]serotonin, CHO cells; type: cell-based
# T5 construct: expressed in transfected cells
# [3] = target: T6, Nicotinic acetylcholine Receptor α4 β2 (nAChR(a4/b2)) (Homo sapiens, UniProt P17787+P43681); assay: cell-based; conditions: nAChR(a4/b2), Ion Channel, blocker; read-out: IC50 (μM) Antag./Blocker/Inhibitor
# T6 construct: expressed in transfected cells
# [4] = target: Gamma-aminobutyric acid Receptor A (GABAA) (Homo sapiens, UniProt P14867+P47870); type: cell-based; conditions: Ion Channel, blocker, read-out: IC50 (μM) Antag./Blocker/Inhibitor
# Chain of Gamma-aminobutyric acid Receptor A (GABAA) (P14867 28-456): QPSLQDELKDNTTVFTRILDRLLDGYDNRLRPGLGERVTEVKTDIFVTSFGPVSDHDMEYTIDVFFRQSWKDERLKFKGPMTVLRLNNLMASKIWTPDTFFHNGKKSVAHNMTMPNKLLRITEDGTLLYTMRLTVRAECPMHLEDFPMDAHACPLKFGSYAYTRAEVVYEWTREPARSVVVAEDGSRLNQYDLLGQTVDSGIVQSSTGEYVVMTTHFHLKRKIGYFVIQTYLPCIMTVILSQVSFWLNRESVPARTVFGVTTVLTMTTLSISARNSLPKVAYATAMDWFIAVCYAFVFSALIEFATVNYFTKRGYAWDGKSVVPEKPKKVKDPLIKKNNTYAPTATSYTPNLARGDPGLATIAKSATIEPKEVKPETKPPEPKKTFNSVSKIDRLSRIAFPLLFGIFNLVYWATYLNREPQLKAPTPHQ
# Chain of Gamma-aminobutyric acid Receptor A (GABAA) (P47870 26-512): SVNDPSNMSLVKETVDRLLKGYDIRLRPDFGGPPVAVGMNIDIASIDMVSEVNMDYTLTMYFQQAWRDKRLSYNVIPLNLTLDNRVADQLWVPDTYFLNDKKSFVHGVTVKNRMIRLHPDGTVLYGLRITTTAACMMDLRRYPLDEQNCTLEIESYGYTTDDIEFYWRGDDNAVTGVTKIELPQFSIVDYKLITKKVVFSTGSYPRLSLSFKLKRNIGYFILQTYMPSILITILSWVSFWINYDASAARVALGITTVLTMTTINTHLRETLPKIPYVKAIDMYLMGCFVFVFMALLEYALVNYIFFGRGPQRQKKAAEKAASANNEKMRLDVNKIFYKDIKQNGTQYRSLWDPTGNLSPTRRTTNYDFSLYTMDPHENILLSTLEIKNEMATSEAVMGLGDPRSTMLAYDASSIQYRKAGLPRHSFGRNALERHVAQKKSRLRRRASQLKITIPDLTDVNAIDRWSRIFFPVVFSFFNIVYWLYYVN
# Chain of Gamma-aminobutyric acid Receptor A (GABAA) (P18507 40-475 partner): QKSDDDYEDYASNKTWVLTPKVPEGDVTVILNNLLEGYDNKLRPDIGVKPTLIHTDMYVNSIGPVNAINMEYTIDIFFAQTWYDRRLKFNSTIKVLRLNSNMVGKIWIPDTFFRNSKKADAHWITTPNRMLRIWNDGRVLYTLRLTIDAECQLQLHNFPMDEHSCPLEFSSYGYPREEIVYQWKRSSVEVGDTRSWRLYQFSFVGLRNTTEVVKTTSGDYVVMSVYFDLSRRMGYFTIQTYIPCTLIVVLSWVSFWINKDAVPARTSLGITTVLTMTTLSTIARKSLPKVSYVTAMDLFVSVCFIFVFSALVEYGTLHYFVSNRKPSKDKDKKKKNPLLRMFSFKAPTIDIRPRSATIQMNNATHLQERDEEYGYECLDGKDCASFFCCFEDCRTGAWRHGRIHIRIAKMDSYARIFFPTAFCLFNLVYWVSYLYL
# T5 sequence (P31645 whole entry): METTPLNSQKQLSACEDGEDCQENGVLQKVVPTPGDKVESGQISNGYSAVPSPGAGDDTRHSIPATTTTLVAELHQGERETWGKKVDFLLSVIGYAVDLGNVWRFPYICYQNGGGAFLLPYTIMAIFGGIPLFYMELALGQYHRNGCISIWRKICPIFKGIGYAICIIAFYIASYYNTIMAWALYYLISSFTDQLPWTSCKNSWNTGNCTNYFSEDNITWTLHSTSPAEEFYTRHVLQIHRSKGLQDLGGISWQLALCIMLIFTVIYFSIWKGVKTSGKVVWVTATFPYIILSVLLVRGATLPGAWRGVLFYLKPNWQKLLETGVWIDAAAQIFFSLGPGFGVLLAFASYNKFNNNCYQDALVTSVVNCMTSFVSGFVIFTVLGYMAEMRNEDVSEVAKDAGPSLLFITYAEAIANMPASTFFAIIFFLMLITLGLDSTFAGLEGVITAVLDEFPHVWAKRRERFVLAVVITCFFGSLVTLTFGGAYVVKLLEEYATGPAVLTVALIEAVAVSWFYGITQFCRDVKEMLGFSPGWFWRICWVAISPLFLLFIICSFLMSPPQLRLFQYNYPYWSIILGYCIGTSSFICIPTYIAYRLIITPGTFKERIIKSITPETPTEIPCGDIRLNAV
# T3 sequence (P31645 whole entry): as above
# T4 sequence (Q01959 whole entry): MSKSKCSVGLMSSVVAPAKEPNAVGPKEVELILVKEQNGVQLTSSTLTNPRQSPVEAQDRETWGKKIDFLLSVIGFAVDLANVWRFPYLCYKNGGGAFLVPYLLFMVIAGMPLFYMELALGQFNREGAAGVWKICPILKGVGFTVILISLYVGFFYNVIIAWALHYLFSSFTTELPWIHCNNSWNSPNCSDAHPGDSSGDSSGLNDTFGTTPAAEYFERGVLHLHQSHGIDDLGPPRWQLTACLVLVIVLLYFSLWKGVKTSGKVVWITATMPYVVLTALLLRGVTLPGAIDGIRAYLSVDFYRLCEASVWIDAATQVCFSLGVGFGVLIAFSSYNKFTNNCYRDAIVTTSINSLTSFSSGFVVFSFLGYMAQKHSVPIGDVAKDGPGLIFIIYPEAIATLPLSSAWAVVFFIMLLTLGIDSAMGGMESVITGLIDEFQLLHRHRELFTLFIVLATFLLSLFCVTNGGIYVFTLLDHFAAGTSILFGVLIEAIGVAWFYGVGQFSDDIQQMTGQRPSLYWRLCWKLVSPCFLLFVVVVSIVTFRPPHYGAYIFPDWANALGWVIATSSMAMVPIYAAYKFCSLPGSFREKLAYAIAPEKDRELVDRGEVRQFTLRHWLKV
# T6 sequence (P43681 29-627 limits assumed): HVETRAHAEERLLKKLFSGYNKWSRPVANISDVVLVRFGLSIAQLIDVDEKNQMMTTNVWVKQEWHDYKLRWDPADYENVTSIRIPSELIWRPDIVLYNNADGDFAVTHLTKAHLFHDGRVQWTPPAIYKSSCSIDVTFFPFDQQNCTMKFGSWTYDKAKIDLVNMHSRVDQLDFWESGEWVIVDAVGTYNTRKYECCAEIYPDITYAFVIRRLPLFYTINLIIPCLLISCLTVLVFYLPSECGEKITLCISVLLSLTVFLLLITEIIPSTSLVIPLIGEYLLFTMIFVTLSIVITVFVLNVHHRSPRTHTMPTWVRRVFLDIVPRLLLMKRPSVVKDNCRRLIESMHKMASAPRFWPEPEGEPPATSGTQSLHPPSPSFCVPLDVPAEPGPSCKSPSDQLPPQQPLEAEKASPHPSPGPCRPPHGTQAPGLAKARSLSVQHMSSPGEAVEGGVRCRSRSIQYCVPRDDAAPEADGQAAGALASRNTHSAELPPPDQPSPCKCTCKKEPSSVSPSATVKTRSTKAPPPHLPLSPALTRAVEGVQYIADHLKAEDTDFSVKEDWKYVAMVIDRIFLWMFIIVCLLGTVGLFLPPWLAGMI
# T6 sequence (P17787 26-502): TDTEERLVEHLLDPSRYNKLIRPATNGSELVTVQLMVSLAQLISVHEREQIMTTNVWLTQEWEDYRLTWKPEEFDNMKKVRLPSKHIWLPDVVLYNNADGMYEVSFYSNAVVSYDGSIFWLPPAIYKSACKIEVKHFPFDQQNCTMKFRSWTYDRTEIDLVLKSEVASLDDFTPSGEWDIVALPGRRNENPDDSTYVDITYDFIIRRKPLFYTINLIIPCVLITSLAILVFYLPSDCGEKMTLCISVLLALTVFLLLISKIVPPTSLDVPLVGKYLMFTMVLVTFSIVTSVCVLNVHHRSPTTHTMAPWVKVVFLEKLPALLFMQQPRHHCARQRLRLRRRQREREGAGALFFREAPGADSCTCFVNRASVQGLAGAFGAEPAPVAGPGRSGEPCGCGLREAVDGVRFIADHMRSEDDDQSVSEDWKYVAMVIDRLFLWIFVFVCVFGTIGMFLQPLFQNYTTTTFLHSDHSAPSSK
compound,measurement,setting,value
CC(N)Cc1c[nH]c2ccccc12 (stereo not drawn) [1-(1H-indol-3-yl)propan-2-amine],IC50,MAOA,380 nM
CC(N)Cc1c[nH]c2ccc(Br)cc12 (stereo not drawn) [1-(5-bromo-1H-indol-3-yl)propan-2-amine],IC50,MAOA,1300 nM
CC(N)Cc1c[nH]c2ccc(Cl)cc12 (stereo not drawn) [1-(5-chloro-1H-indol-3-yl) propan-2-amine],IC50,MAOA,250 nM
CC(N)Cc1c[nH]c2ccc(F)cc12 (stereo not drawn) [1-(5-fluoro-1H-indol-3-yl) propan-2-amine],"MAOA inhibition (MAOI or not, in words)",MAOA; previously reported data,are MAOIs
same,IC50,MAOA,450 nM
"CNCC(=O)c1c[nH]c2ccc(F)cc12 [1-(5-fluoro-1H-indol-3-yl)-2-(methylamino)ethan-1-one, reference compound]",Hill,[1],1.02
same,IC50,"[1]; Table 10, Source: Original data, read-out: MAOA IC50",3430 nM
same,"MAOA inhibition (MAOI or not, in words)",[1],is also an MAOI
"CCC(N)Cc1c[nH]c2ccc(F)cc12 (stereo not drawn) [1-(5-fluoro-1H-indol-3-yl)butan-2-amine, reference compound]",IC50,[1],2480 nM
same,Hill,[1],0.89
Cc1[nH]c2ccc(F)cc2c1CC(C)N (stereo not drawn) [1-(5-fluoro-2-methyl-1H-indol-3-yl)propan-2-amine],IC50,MAOA,4100 nM
Cc1ccc2[nH]cc(CC(C)N)c2c1 (stereo not drawn) [1-(5-methyl-1H-indol-3-yl) propan-2-amine],IC50,MAOA,1500 nM
CC(N)Cc1c[nH]c2cc(F)ccc12 (stereo not drawn) [1-(6-fluoro-1H-indol-3-yl) propan-2-amine],IC50,MAOA,1800 nM
CCC(N)C(=O)c1c[nH]c2ccc(F)cc12 (stereo not drawn) [2-amino-1-(5-fluoro-1H-indol-3-yl) butan-1-one],IC50,[1],> 30000 nM
"CNC(C)Cc1ccc2c(c1)OCO2 (stereo not drawn) [MDMA, 3,4-methylenedioxymethamphetamine]",EC50,"neuritogenesis; Ly et al. Cell reports 2018, Figure S3, read-out: EC50 for promoting neuritogenesis",7.41 nM
same,Emax for promoting neuritogenesis,"neuritogenesis; relative to ketamine, Ly et al. 2018",approximately twice that of ketamine
"CNC(C)Cc1c[nH]c2ccc(F)cc12 (stereo not drawn) [[1-(5-fluoro-1H-indol-3-yl)propan-2-yl](methyl)amine, reference compound]",IC50,[1],450 nM
same,Hill,[1],1.01
same,"MAOA inhibition (MAOI or not, in words)",[1],are MAOIs
CNC(C)C(=O)c1c[nH]c2ccc(F)cc12 (stereo not drawn) [drawing 183],IC50,[2],3500 nM
same,Ki,[2],1600 nM
CNC(C)C(=O)c1c[nH]c2ccc(Br)cc12 (stereo not drawn) [drawing 184],IC50,[2],5600 nM
same,Ki,[2],2600 nM
CNC(C)C(=O)c1c[nH]c2ccc(Cl)cc12 (stereo not drawn) [drawing 185],IC50,[2],2500 nM
same,Ki,[2],1100 nM
CNC(C)C(=O)c1c[nH]c2ccc(F)cc12 (stereo not drawn) [drawing 186],EC50,human DAT,620 nM
same,DAT/SERT ratio,human DAT,0.31
same,EC50,human SERT,190 nM
CNC(C)C(=O)c1c[nH]c2ccc(Br)cc12 (stereo not drawn) [drawing 187],EC50,human DAT,2100 nM
same,DAT/SERT ratio,human DAT,0.14
same,EC50,human SERT,295 nM
CNC(C)C(=O)c1c[nH]c2ccc(Cl)cc12 (stereo not drawn) [drawing 188],EC50,human DAT,865 nM
same,DAT/SERT ratio,human DAT,0.23
same,EC50,human SERT,200 nM
Dihydro-AY-erythroidine [reference compound],IC50,[3],0.682 µM
Picrotoxin,IC50,[4],2.78 µM
